Source: the NIST ThermoML archive (doi:10.1016/j.jct.2012.09.004)

Assays:
[1] = refractive index (Na D-line) (dimensionless); wn = mass fraction of the nth substance listed; conditions: 101 kPa, Liquid, Standard Abbe refractometry
[2] = wn = mass fraction of the nth substance listed; conditions: Pendant drop shape
[3] = Pendant drop shape
[4] = refractive index (Na D-line) (dimensionless); conditions: 101.33 kPa, Liquid, Standard Abbe refractometry

CCCCCCCCCC(=O)[O-].CCCCCCCCCCCCCC[P+](CCCCCC)(CCCCCC)CCCCCC [trihexyltetradecylphosphonium decanoate] + O
w2 = 0.1526
Conditions | refractive index | surface tension liquid-gas [mN/m]
[1], 298.15 K | 1.45342 | –
[1], 303.15 K | 1.45194 | –
[1], 308.15 K | 1.45041 | –
[1], 313.15 K | 1.44877 | –
[1], 318.15 K | 1.44699 | –
[1], 323.15 K | 1.44498 | –
[1], 328.15 K | 1.4431 | –
[1], 333.15 K | 1.44129 | –
[1], 338.15 K | 1.43948 | –
[1], 343.15 K | 1.43763 | –
[1], 348.15 K | 1.43579 | –
[1], 353.15 K | 1.43397 | –
[2], 298.4 K | – | 29.1
[2], 307.7 K | – | 28.5
[2], 318 K | – | 27.7
[2], 328.9 K | – | 26.8
[2], 339.2 K | – | 26
[2], 344.3 K | – | 25.6

CCCCCCCCCCCCCC[P+](CCCCCC)(CCCCCC)CCCCCC.CS(=O)(=O)[O-] [trihexyltetradecylphosphonium methanesulfonate]
Conditions | refractive index | surface tension liquid-gas [mN/m]
[3], 298.3 K | – | 31
[3], 308 K | – | 30.3
[3], 318.5 K | – | 29.6
[3], 328.8 K | – | 28.8
[3], 338.7 K | – | 28.2
[3], 343.5 K | – | 27.9
[4], 283.15 K | 1.47813 | –
[4], 288.15 K | 1.47668 | –
[4], 293.15 K | 1.47507 | –
[4], 298.15 K | 1.47346 | –
[4], 303.15 K | 1.47186 | –
[4], 308.15 K | 1.47025 | –
[4], 313.15 K | 1.46865 | –
[4], 318.15 K | 1.46702 | –
[4], 323.15 K | 1.4654 | –
[4], 328.15 K | 1.4638 | –
[4], 333.15 K | 1.46217 | –
[4], 338.15 K | 1.46053 | –
[4], 343.15 K | 1.45895 | –
[4], 348.15 K | 1.45727 | –
[4], 353.15 K | 1.45572 | –

CCCCCCCCCCCCCC[P+](CCCCCC)(CCCCCC)CCCCCC.CS(=O)(=O)[O-] [trihexyltetradecylphosphonium methanesulfonate] + O
w2 = 0.1181
Conditions | refractive index | surface tension liquid-gas [mN/m]
[1], 298.15 K | 1.45621 | –
[1], 303.15 K | 1.4546 | –
[1], 308.15 K | 1.45281 | –
[1], 313.15 K | 1.45111 | –
[1], 318.15 K | 1.44947 | –
[1], 323.15 K | 1.44795 | –
[1], 328.15 K | 1.44655 | –
[1], 333.15 K | 1.44532 | –
[1], 338.15 K | 1.44427 | –
[1], 343.15 K | 1.44334 | –
[1], 348.15 K | 1.44253 | –
[1], 353.15 K | 1.44181 | –
[2], 298.6 K | – | 31.15
[2], 307.8 K | – | 30.45
[2], 318 K | – | 29.81
[2], 323.8 K | – | 29.09
[2], 338.2 K | – | 28.29
[2], 342.7 K | – | 28.05
